Assay results: ChEMBL document CHEMBL1201862, “PubChem BioAssay data set” (2004)
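Each compound was tested at five concentrations against cells in 96-well plates for 48 hours. GI50 is the concentration that inhibits growth by half.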 Activity calls are given as the source filed them. Cut-off read from the data, not from the text of the source: active = GI50 up to about 1.1 µM and inactive = higher.

What was measured:
Test in all cases: inhibition of tumour cell growth, NCI panel, 48 h
ACHN = test system: ACHN
DU-145 = test system: DU-145
HL-60 = test system: HL-60
HT-29 = test system: HT-29
K562 = test system: K562
MDA-MB-435 = test system: MDA-MB-435
Malme-3M = test system: Malme-3M
NCI-H23 = test system: NCI-H23
NCI-H460 = test system: NCI-H460
NCI/ADR-RES = test system: NCI/ADR-RES
SF-268 = test system: SF-268
SF-295 = test system: SF-295
SK-MEL-5 = test system: SK-MEL-5
SN12C = test system: SN12C
SNB-19 = test system: SNB-19
U-251 = test system: U-251
UACC-62 = test system: UACC-62
UO-31 = test system: UO-31
SF-539 = test system: SF-539
SNB-75 = test system: SNB-75

Measured: GI50

COc1ccc(/C=C2\CCC(CNc3ccc(Br)cc3)C2=O)cc1 (stereo not given)
inactive: ACHN 15.3 µM | DU-145 > 100 µM | HL-60 24.5 µM | HT-29 > 100 µM | K562 20 µM | MDA-MB-435 > 100 µM | Malme-3M > 100 µM | NCI-H23 > 100 µM | NCI-H460 76 µM | NCI/ADR-RES > 100 µM | SF-268 > 100 µM | SF-295 > 100 µM | SK-MEL-5 80.9 µM | SN12C 10.2 µM | SNB-19 > 100 µM | U-251 > 100 µM | UACC-62 34.8 µM | UO-31 73.8 µM

COC(=O)/C(C)=N/N=C(\S)SC
inactive: ACHN 34.1 µM | DU-145 24.3 µM | HT-29 17.3 µM | K562 75 µM | MDA-MB-435 60.5 µM | NCI-H23 45.6 µM | NCI-H460 26.9 µM | NCI/ADR-RES 30 µM | SF-268 21.8 µM | SF-295 40.2 µM | SF-539 82.6 µM | SK-MEL-5 29.2 µM | U-251 38.5 µM | UO-31 36.7 µM
active: HL-60 0.105 µM

CCCCOc1ccc(S(=O)(=O)N/C(N)=N/c2ccc(Cl)cc2)cc1
inactive: ACHN 14.6 µM | DU-145 17.4 µM | HT-29 18.3 µM | K562 15 µM | Malme-3M 14.6 µM | NCI-H23 15.7 µM | NCI-H460 17.1 µM | NCI/ADR-RES 16 µM | SF-268 14.3 µM | SF-295 18.3 µM | SF-539 20.9 µM | SK-MEL-5 18.9 µM | SN12C 14.9 µM | SNB-19 16.9 µM | SNB-75 17.9 µM | U-251 14.8 µM | UACC-62 14.1 µM | UO-31 14.8 µM

O=C(Cn1c2c(c3ccccc31)CCCC2)NC1CCCCC1
active: HL-60 0.405 µM
inactive: ACHN > 100 µM | HT-29 > 100 µM | K562 > 100 µM | MDA-MB-435 > 100 µM | Malme-3M > 100 µM | NCI-H23 > 100 µM | NCI-H460 > 100 µM | NCI/ADR-RES > 100 µM | SF-268 77.3 µM | SF-295 51.3 µM | SF-539 > 100 µM | SK-MEL-5 > 100 µM | SN12C > 100 µM | SNB-19 > 100 µM | UACC-62 56.4 µM | UO-31 > 100 µM

Cc1cc2c(c(=O)o1)C1=S(SC(c3ccccc3)=C1)S2 (stereo not given)
inactive: ACHN 34.7 µM | DU-145 36.3 µM | HT-29 38.9 µM | K562 38.4 µM | Malme-3M 30.1 µM | NCI-H23 78.9 µM | NCI-H460 37.2 µM | NCI/ADR-RES 83.4 µM | SF-268 45.7 µM | SF-295 27.3 µM | SF-539 24.3 µM | SK-MEL-5 47.4 µM | SN12C 67.3 µM | SNB-19 28.2 µM | SNB-75 26 µM | U-251 22.5 µM | UACC-62 39.2 µM | UO-31 26.5 µM

O=C(Nc1cccc2nsnc12)c1cc2c(cc1Cl)Sc1nccn1S2(=O)=O
inactive: ACHN 12.7 µM | HL-60 1.85 µM | HT-29 2.74 µM | K562 3.98 µM | MDA-MB-435 9.62 µM | Malme-3M 74.5 µM | NCI-H23 11.2 µM | NCI-H460 2.4 µM | NCI/ADR-RES 17.7 µM | SF-268 3.62 µM | SF-295 14.1 µM | SF-539 3.52 µM | SK-MEL-5 17.9 µM | SN12C 13.6 µM | SNB-19 12.1 µM | SNB-75 8.02 µM | U-251 5.66 µM | UACC-62 5.33 µM | UO-31 2.07 µM

CC1(C)C2CCC1(C)C(OC(=O)/C=C/C(=O)OC1CC3CCC1(C)C3(C)C)C2 (stereo not given)
inactive: ACHN > 100 µM | DU-145 > 100 µM | HL-60 16.9 µM | HT-29 40 µM | K562 31.9 µM | MDA-MB-435 67.3 µM | NCI-H23 47.9 µM | NCI-H460 67.9 µM | NCI/ADR-RES > 100 µM | SF-268 > 100 µM | SF-295 > 100 µM | SF-539 > 100 µM | SK-MEL-5 17.9 µM | SN12C 82.2 µM | SNB-19 51.4 µM | U-251 46.1 µM | UACC-62 31.2 µM | UO-31 > 100 µM
active: SNB-75 0.902 µM

NC(=O)C(=CN1C(=O)CC(=O)NC1=S)C(N)=O
inactive: ACHN > 100 µM | DU-145 > 100 µM | HL-60 > 100 µM | HT-29 > 100 µM | MDA-MB-435 > 100 µM | NCI-H23 > 100 µM | NCI-H460 > 100 µM | NCI/ADR-RES > 100 µM | SF-268 > 100 µM | SF-295 > 100 µM | SF-539 > 100 µM | SK-MEL-5 > 100 µM | SN12C > 100 µM | SNB-19 > 100 µM | SNB-75 > 100 µM | U-251 > 100 µM | UO-31 > 100 µM

O=C(Cc1ccccc1)NN1C(=O)/C(=C\c2ccccc2)S/C1=N\c1ccccc1
inactive: ACHN > 100 µM | DU-145 > 100 µM | HT-29 > 100 µM | MDA-MB-435 > 100 µM | NCI-H23 > 100 µM | NCI-H460 > 100 µM | NCI/ADR-RES > 100 µM | SF-268 > 100 µM | SF-295 > 100 µM | SF-539 > 100 µM | SK-MEL-5 > 100 µM | SN12C > 100 µM | SNB-19 > 100 µM | SNB-75 > 100 µM | U-251 > 100 µM | UACC-62 > 100 µM | UO-31 > 100 µM

CC(=O)NC1(C)C(C)C2CC1C(C)C2(C)C (stereo not given)
inactive: ACHN > 100 µM | DU-145 > 100 µM | HL-60 > 100 µM | HT-29 > 100 µM | K562 > 100 µM | MDA-MB-435 > 100 µM | Malme-3M > 100 µM | NCI-H23 > 100 µM | NCI-H460 > 100 µM | SF-268 > 100 µM | SF-295 > 100 µM | SF-539 > 100 µM | SK-MEL-5 > 100 µM | SN12C > 100 µM | SNB-19 > 100 µM | SNB-75 > 100 µM | U-251 > 100 µM | UACC-62 > 100 µM | UO-31 > 100 µM

COc1c2c(cc3nc4ccccc4nc13)CC[C@H](NC(C)=O)c1cc(=O)c(SC)ccc1-2
active: HT-29 1.04 µM | K562 0.29 µM | MDA-MB-435 0.132 µM | Malme-3M 0.288 µM | NCI-H23 0.238 µM | NCI-H460 0.933 µM | SF-539 0.304 µM | SK-MEL-5 0.412 µM | SNB-19 0.446 µM | U-251 0.353 µM | UACC-62 0.437 µM
inactive: ACHN 4.15 µM | DU-145 2.47 µM | NCI/ADR-RES 12.5 µM | SF-268 1.15 µM | SF-295 1.17 µM | SN12C 2.79 µM | UO-31 5.09 µM
